This assay relates to iPSC-derived primitive streak cells. In words: Flow cytometry of differentiation markers after CHIR99021 treatment of primitive streak cells. It counts as cell-based, human. The protocol:
iPSCs seeded onto Geltrex-coated plates at a density of 100,000 cells/cm^2 were treated with mTesR media with 10 μM ROCKi for the first 24 h. On Day 0, cells were treated with base media (DMEM/F12 with GlutaMax, 1×B27) supplemented with primitive streak induction factors including 100 ng/ml Activin A and 3 μM CHIR99021. On Day 2, cells were treated with base media including 8 μM CHIR99021 to induce intermediate mesoderm until Day 5, followed by treatment with base medium containing 200 ng/ml FGF9 and 1 mg/ml Heparin (Sigma-Aldrich, St. Louis, Missouri). On Day 7, to induce the nephron progenitors, the cells were dissociated using Accutase and replated (1:4) onto laminin-511-coated plates. The podocyte phenotype was induced using base media supplemented with 100 ng/ml BMP7, 100 ng/ml Activin A, 50 ng/ml VEGF, 3 μM CHIR99021, and 0.1 μM RA and cells were assayed on Day 12. The detailed methods for deriving the podocytes was carefully described elsewhere (Bejoy J, et al. STAR protocols. 2021 2 (4): 100898).
To evaluate the expression of proteins of interest quantitatively, the cells were harvested by Accutase treatment and analyzed by flow cytometry. […] The cells were acquired with BD FACSCanto II flow cytometer (BD Biosciences, Beckton, New Jersey) and analyzed against isotype controls using FlowJo software. […]

The values below come from US20240352426A1, “Accelerated Protocol for the Differentiation of Podocytes from Human Pluripotent Stem Cells” (Vanderbilt University, priority 2021, published 2024).

As for `Cc1c[nH]c(-c2cnc(NCCNc3ccc(C#N)cn3)nc2-c2ccc(Cl)cc2Cl)n1` [CHIR99021], the “population of MIXL1+ cells (flow cytometry)” value (8 μM CHIR99021 for 2-3 days on primitive streak cells) was determined as 26.7%. Under “day 5, after 8 μM CHIR99021, intermediate mesoderm stage”, the “cells expressing PAX8 (flow cytometry)” value was 95.9%.
